{"source": "patent US20150359220A1", "about": "“COMPOSITIONS COMPRISING GOUGEROTIN AND A FUNGICIDE” (BAYER CROPSCIENCE LP, priority 2013, published 2015)", "key": {"[1]": {"system": "Blumeria graminis fsp. hordei", "test": "Blumeria test (barley)/preventive", "type": "in vivo", "settings": "Table 6; 125 ppm a.i.; 7 days after inoculation"}, "Alternaria solani": {"system": "Alternaria solani", "test": "Alternaria test (tomatoes)/preventive", "type": "in vivo", "settings": "Table 4, 50 ppm a.i., 3 days after inoculation"}, "Botrytis cinerea": {"system": "Botrytis cinerea", "test": "Botrytis test (beans)/preventive", "settings": "Table 7, size of lesions 2 days after inoculation"}, "Sphaerotheca fuliginea": {"system": "Sphaerotheca fuliginea", "test": "Sphaerotheca test (cucumbers)/preventive", "type": "in vivo", "settings": "Table 20, 100 ppm a.i., 7 days after inoculation"}, "Venturia inaequalis": {"system": "Venturia inaequalis", "test": "Venturia test (apples)/preventive"}, "Septoria tritici": {"system": "Septoria tritici", "test": "Septoria tritici-test (wheat)/preventive", "type": "in vivo", "settings": "Table 17, 21 days after inoculation"}, "[2]": {"system": "gram-positive, gram-negative bacteria and tubercule bacillus", "settings": "according to U.S. Pat. No. 3,849,398; cited from earlier work"}, "[3]": {"system": "parasites on animals, such as pin worm", "settings": "according to U.S. Pat. No. 3,849,398; cited from earlier work"}}}
{"compound": "CCCN(CC)CC1COC2(CCC(C(C)(C)C)CC2)O1", "note": "(stereo not shown) [F46, spiroxamine]", "values": [{"measurement": "Efficacy in % found", "setting": "[1]", "value": 11, "unit": "%"}, {"measurement": "pest or weed control at 50 ppm", "setting": "Alternaria solani; Alternaria solani, topical, 72 h, read-out: Efficacy in % found", "value": 46, "unit": "%"}, {"measurement": "Efficacy in % found", "setting": "Botrytis cinerea; 100 ppm a.i.", "value": 14, "unit": "%"}, {"measurement": "pest or weed control at 100 ppm", "setting": "Sphaerotheca fuliginea; Podosphaera fuliginea, 168 h, read-out: Efficacy in % found", "value": 30, "unit": "%"}, {"measurement": "pest or weed control at 50 ppm", "setting": "Venturia inaequalis; Venturia inaequalis, 240 h, read-out: Efficacy in % found", "value": 0, "unit": "%"}]}
{"compound": "N#Cc1ccccc1NC(=O)c1snc(Cl)c1Cl", "note": "[F187, isotianil]", "values": [{"measurement": "Efficacy in % found", "setting": "Alternaria solani", "value": 18, "unit": "%"}, {"measurement": "Efficacy in % found", "setting": "Botrytis cinerea; 125 ppm a.i.", "value": 40, "unit": "%"}, {"measurement": "Efficacy in % found", "setting": "Septoria tritici; 250 ppm a.i.", "value": 29, "unit": "%"}, {"measurement": "Efficacy in % found", "setting": "Septoria tritici; 500 ppm a.i.", "value": 29, "unit": "%"}, {"measurement": "Efficacy in % found", "setting": "Sphaerotheca fuliginea", "value": 20, "unit": "%"}, {"measurement": "Efficacy in % found", "setting": "Venturia inaequalis; Table 21, 50 ppm a.i., 10 days after inoculation", "value": 0, "unit": "%"}]}
{"compound": "CNCC(=O)NC(CO)C(=O)NC1C(C(N)=O)OC(n2ccc(N)nc2=O)C(O)C1O", "note": "[gougerotin, 1-(4-Amino-2-oxo-1(2H)-pyrimidinyl)-1,4-dideoxy-4-[[N—(N-methylglycyl)-D-seryl]amino]-b-D-glucopyranuronamide]", "values": [{"measurement": "antibacterial activity", "setting": "[2]", "value": "weak antibacterial activity"}, {"measurement": "parasiticidal action", "setting": "[3]", "value": "parasiticidal action"}]}
